# Experimental data taken from ChEMBL document CHEMBL1142582, “Lignans and their degraded derivatives from Sarcostemma acidum” (2005).
# What was measured:
# Type in all cases: functional
# Candida albicans = assay: Antimicrobial activity against Candida albicans ATCC 1600 after 48 hrs by broth microdilution test; settings: ATCC 1600, 48 h
# Staphylococcus aureus = assay: Antimicrobial activity against Staphylococcus aureus ATCC 25923 after 18 hrs by broth microdilution test; settings: ATCC 25923, 18 h
# [1] = system: Staphylococcus epidermidis; assay: Antimicrobial activity against Staphylococcus epidermidis ATCC 12228 after 18 hrs by broth microdilution test; settings: ATCC 12228, 18 h
smiles,measurement,setting,value
COC(=O)C1=CC[C@@]23CC[C@@H]([C@@](C)(/C=C/C=C(\C)C(=O)O)OC2=O)[C@@]3(OC(C)=O)CC1 [PSEUDOLARIC ACID B],MIC,Candida albicans,14 µM
COc1cc(-c2c(C)c(C)cc3c(OC)c(O)c(OC)cc23)cc(OC)c1O [SACIDUMLIGNAN A],MIC,Staphylococcus aureus,130 µM
same,MIC,Candida albicans,> 130 µM
same,MIC,[1],65 µM
COc1cc([C@@H]2c3cc(OC)c(O)c(OC)c3C=C(C)[C@H]2C)cc(OC)c1O (relative stereo) [SACIDUMLIGNAN B],MIC,Staphylococcus aureus,> 130 µM
same,MIC,Candida albicans,> 130 µM
same,MIC,[1],> 130 µM
C=CCc1ccc(O)c(-c2cc(CC=C)ccc2O)c1 [MAGNOLOL],MIC,Staphylococcus aureus,47 µM
same,MIC,[1],23 µM
